# Experimental data: patent US8454582B2, “Methods and devices for the treatment of ocular conditions” (Surmodics, Inc., priority 2004, dated 2013)
# Key:
# [1] = 72 hours after injection; cited from earlier work
# [2] = In vivo elution: HPLC detection of TA in tissues after 4-week subretinal PCL/TA implantation; conditions: four weeks after subretinal implant, PCL/TA 60:40, rabbit
Structure (SMILES),"triamcinolone present in the vitreous that is associated with other tissues including the retina, pigment epithelium, and sclera [1]",TA in the anterior structures (HPLC) [2],TA in the blood (HPLC) [2],TA in the posterior tissue samples (HPLC) [2]
C[C@]12C=CC(=O)C=C1CC[C@H]1[C@@H]3C[C@@H](O)[C@](O)(C(=O)CO)[C@@]3(C)C[C@H](O)[C@@]12F [triamcinolone],less than 1%,,,
"CC1(C)O[C@@H]2C[C@H]3[C@@H]4CCC5=CC(=O)C=C[C@]5(C)[C@@]4(F)[C@@H](O)C[C@]3(C)[C@]2(C(=O)CO)O1 [TA, Triamcinolone acetonide]",,not detected,not detected,confirmed the presence
